# Laboratory results published in US8962843B2, “1,3,4-oxadiazole and 1,3,4-thiadiazole beta-lactamase inhibitors” (priority 2012, dated 2015).
# Structures can show the parent of a compound that is named as a salt.
# Experiments:
# [1] = tested on: bacterial strains that express KPC β-lactamases; experiment: Standard BLI potentiation MIC / synergy MIC assays, strains expressing KPC β-lactamases; assay type: cell-based; details: in combination with a β-lactam; comparator Avibactam
# Description: (§1) The experimental protocol was performed according to Clinical and Laboratory Standards Institute (CLSI) guidelines with modifications as described below (CLSI guidelines can be derived from the CLSI document M07-A9 published in January 2012: “Methods for Dilution Antimicrobial Susceptibility Tests for Bacteria That Grow Aerobically; Approved Standard-Ninth Edition”).
# (§2) To prepare for MIC testing, frozen glycerol stocks of clinical isolates (Klebsiella pneumoniae, Eschericia coli, Enterobacter spp, Citrobacter spp, or Pseudomonas aeruginosa) were used to streak for isolated colonies on rich, non-selective, tryptic soy agar containing 5% sheep's blood (TSAB). Frozen glycerol stocks of laboratory engineered, isogenic E. coli strains, which contain cloned β-lactamase expressing plasmids were used to streak for isolated colonies on rich, selective LB agar supplemented with 25 μg/mL tetracycline to maintain the plasmid. All strains were incubated at 37° C. for 18-24 hrs.
# (§3) On the day of testing, primary cultures were started by scraping off 5-10 colonies from the TSAB plates containing clinical strains or the tetracycline supplemented LB plates containing engineered strains. The clinical strain material was suspended in ˜5 mL of cation adjusted Mueller Hinton Broth (CAMHB) in 14 mL culture tubes. The engineered strain material was suspended in CAMHB (supplemented with 25 μg/mL tetracycline) in 14 mL culture tubes. All strains were incubated at 37° C. with aeration (200 rpm) for ˜2 hrs until the optical density at 600 nm (OD600) was >0.1.
# (§4) The two compound components of the assay were each diluted in CAMHB and added to the 96-well broth microdilution assay plates. 50 μL of the β-lactam was added to each well of the assay plate in 2-fold dilutions with final concentrations ranging from 128 to 0.13 μg/mL. 25 μL of the BLI compound was added to all wells in the broth microdilution plates at a final concentration of 4 μg/mL. Inoculum cultures were prepared by standardizing the primary cultures to OD600=0.1 and then adding 20 μL of the adjusted primary culture per 1 mL CAMHB for clinical strains or CAMHB (supplemented with tetracycline at 100 μg/mL) for engineered strains, so that the final inoculum density was ˜10^5 colony forming units per milliliter. Diluted inoculum cultures were used to inoculate 25 μl, per well in 96-well broth microdilution assay plates. The final volume of each well was 100 μL and contained a β-lactam at different concentrations, a BLlcompound at 4 μg/mL concentration, the bacterial culture at an OD600 of approximately 0.001 and when necessary tetracycline at 25 μg/mL.
# (§5) Plates were incubated for 18-20 hours at 37° C. with aeration (200 rpm). Following incubation, growth was confirmed visually placing plates over a viewing apparatus (stand with a mirror underneath) and then OD600 was measured using a SpectraMax 340PC384 plate reader (Molecular Devices, Sunnyvale, Calif.). Growth was defined as turbidity that could be detected with the naked eye or achieving minimum OD600 of 0.1. MIC values were defined as the lowest concentration producing no visible turbidity.
# (§6) The synergy MIC (sMIC) assay determines the concentration of the BLI required to potentiate the activity of a fixed concentration of a β-lactam antibiotic against β-lactamase producing bacterial strains. The experimental protocol was performed according to Clinical and Laboratory Standards Institute (CLSI) guidelines with modifications as described below (CLSI guidelines can be derived from the CLSI document M07-A9 published in January 2012: “Methods for Dilution Antimicrobial Susceptibility Tests for Bacteria That Grow Aerobically; Approved Standard-Ninth Edition”). […]
# [2] = tested on: bacterial strains that express the class D cephalosporinase OXA-15; experiment: Standard BLI potentiation MIC / synergy MIC assays, strains expressing OXA-15; assay type: cell-based, E. coli; details: in combination with a β-lactam; comparator Avibactam (CCC)
# Description: as §1, §2, §3, §4, §5, §6
SMILES,"activity and/or spectrum of activity against bacterial strains that express KPC β-lactamases, compared with Avibactam [1]","activity against bacterial strains that express the class D cephalosporinase OXA-15, compared with Avibactam [2]"
"N=C(N)N1CC(c2nnc([C@@H]3CC[C@@H]4CN3C(=O)N4OS(=O)(=O)O)o2)C1 [Compound 709, (2S,5R)-2-(5-(1-carbamimidoylazetidin-3-yl)-1,3,4-oxadiazol-2-yl)-7-oxo-1,6-diazabicyclo[3.2.1]octan-6-yl hydrogen sulfate]","more active than Avibactam for at least one, bacterial strain that expresses KPC β-lactamase and/or show a better spectrum of activity",more active than Avibactam
"O=C1N2C[C@@H](CC[C@H]2c2nnc(C3CCNC3)o2)N1OS(=O)(=O)O (stereo partly drawn) [Compound 710, (2S,5R)-7-oxo-2-(5-(pyrrolidin-3-yl)-1,3,4-oxadiazol-2-yl)-1,6-diazabicyclo[3.2.1]octan-6-yl hydrogen sulfate]","more active than Avibactam for at least one, bacterial strain that expresses KPC β-lactamase and/or show a better spectrum of activity",more active than Avibactam
"O=C1N2C[C@@H](CC[C@H]2c2nnc(C3CCNCC3)o2)N1OS(=O)(=O)O [Compound 711, (2S,5R)-7-oxo-2-(5-(piperidin-4-yl)-1,3,4-oxadiazol-2-yl)-1,6-diazabicyclo[3.2.1]octan-6-yl hydrogen sulfate]","more active than Avibactam for at least one, bacterial strain that expresses KPC β-lactamase and/or show a better spectrum of activity",more active than Avibactam
"NCCCc1nnc([C@@H]2CC[C@@H]3CN2C(=O)N3OS(=O)(=O)O)o1 [Compound 720, (2S,5R)-2-(5-(3-aminopropyl)-1,3,4-oxadiazol-2-yl)-7-oxo-1,6-diazabicyclo[3.2.1]octan-6-yl hydrogen sulfate]","more active than Avibactam for at least one, bacterial strain that expresses KPC β-lactamase and/or show a better spectrum of activity",more active than Avibactam
"N=C(N)NCc1nnc([C@@H]2CC[C@@H]3CN2C(=O)N3OS(=O)(=O)O)s1 [Compound 721, (2S,5R)-2-(5-(guanidinomethyl)-1,3,4-thiadiazol-2-yl)-7-oxo-1,6-diazabicyclo[3.2.1]octan-6-yl hydrogen sulfate]","more active than Avibactam for at least one, bacterial strain that expresses KPC β-lactamase and/or show a better spectrum of activity",more active than Avibactam
"CNCCc1nnc([C@@H]2CC[C@@H]3CN2C(=O)N3OS(=O)(=O)O)o1 [Compound 722, (2S,5R)-2-(5-(2-(methylamino)ethyl)-1,3,4-oxadiazol-2-yl)-7-oxo-1,6-diazabicyclo[3.2.1]octan-6-yl hydrogen sulfate]","more active than Avibactam for at least one, bacterial strain that expresses KPC β-lactamase and/or show a better spectrum of activity",more active than Avibactam
"N=C(N)NCC1(c2nnc([C@@H]3CC[C@@H]4CN3C(=O)N4OS(=O)(=O)O)o2)CC1 [Compound 723, (2S,5R)-2-(5-(1-(guanidinomethyl)cyclopropyl)-1,3,4-oxadiazol-2-yl)-7-oxo-1,6-diazabicyclo[3.2.1]octan-6-yl hydrogen sulfate]","more active than Avibactam for at least one, bacterial strain that expresses KPC β-lactamase and/or show a better spectrum of activity",more active than Avibactam
"NC1(Cc2nnc([C@@H]3CC[C@@H]4CN3C(=O)N4OS(=O)(=O)O)o2)CC1 [Compound 724, (2S,5R)-2-(5-((1-aminocyclopropyl)methyl)-1,3,4-oxadiazol-2-yl)-7-oxo-1,6-diazabicyclo[3.2.1]octan-6-yl hydrogen sulfate]","more active than Avibactam for at least one, bacterial strain that expresses KPC β-lactamase and/or show a better spectrum of activity",more active than Avibactam
"O=C1N2C[C@@H](CC[C@H]2c2nnc(CNC3CNC3)o2)N1OS(=O)(=O)O [Compound 726, (2S,5R)-2-(5-((azetidin-3-ylamino)methyl)-1,3,4-oxadiazol-2-yl)-7-oxo-1,6-diazabicyclo[3.2.1]octan-6-yl hydrogen sulfate]","more active than Avibactam for at least one, bacterial strain that expresses KPC β-lactamase and/or show a better spectrum of activity",more active than Avibactam
"N[C@H]1C[C@H](c2nnc([C@@H]3CC[C@@H]4CN3C(=O)N4OS(=O)(=O)O)o2)C1 [Compound 727, (2S,5R)-2-(5-((1r,3S)-3-aminocyclobutyl)-1,3,4-oxadiazol-2-yl)-7-oxo-1,6-diazabicyclo[3.2.1]octan-6-yl hydrogen sulfate]","more active than Avibactam for at least one, bacterial strain that expresses KPC β-lactamase and/or show a better spectrum of activity",more active than Avibactam
"N[C@H]1C[C@@H](Cc2nnc([C@@H]3CC[C@@H]4CN3C(=O)N4OS(=O)(=O)O)o2)C1 [Compound 728, (2S,5R)-2-(5-(((1s,3R)-3-aminocyclobutyl)methyl)-1,3,4-oxadiazol-2-yl)-7-oxo-1,6-diazabicyclo[3.2.1]octan-6-yl hydrogen sulfate]","more active than Avibactam for at least one, bacterial strain that expresses KPC β-lactamase and/or show a better spectrum of activity",more active than Avibactam
"N[C@@H]1CC[C@H](c2nnc([C@@H]3CC[C@@H]4CN3C(=O)N4OS(=O)(=O)O)o2)C1 [Compound 729, (2S,5R)-2-(5-((1S,3R)-3-aminocyclopentyl)-1,3,4-oxadiazol-2-yl)-7-oxo-1,6-diazabicyclo[3.2.1]octan-6-yl hydrogen sulfate]","more active than Avibactam for at least one, bacterial strain that expresses KPC β-lactamase and/or show a better spectrum of activity",more active than Avibactam
"N=C(N)NCC(O)Cc1nnc([C@@H]2CC[C@@H]3CN2C(=O)N3OS(=O)(=O)O)o1 (stereo partly drawn) [Compound 730, (2S,5R)-2-(5-(3-guanidino-2-hydroxypropyl)-1,3,4-oxadiazol-2-yl)-7-oxo-1,6-diazabicyclo[3.2.1]octan-6-yl hydrogen sulfate]","more active than Avibactam for at least one, bacterial strain that expresses KPC β-lactamase and/or show a better spectrum of activity",more active than Avibactam
"N=C(N)NC[C@@H](O)c1nnc([C@@H]2CC[C@@H]3CN2C(=O)N3OS(=O)(=O)O)o1 [Compound 731, (2S,5R)-2-(5-((R)-2-guanidino-1-hydroxyethyl)-1,3,4-oxadiazol-2-yl)-7-oxo-1,6-diazabicyclo[3.2.1]octan-6-yl hydrogen sulfate]","more active than Avibactam for at least one, bacterial strain that expresses KPC β-lactamase and/or show a better spectrum of activity",more active than Avibactam
